“Also recorded” adds a separate entry of the source. Counter-ions that a name gives are not always drawn.
Legend:
[1] = test system: PARP-1; assay: PARP-1 poly-ADP-ribosylation activity in CC cells (WB); assay type: cell-based, human; conditions: CC cells
Protocol: (§1) WB analyses were carried out as previously described before. In brief, cells were lysed in RIPA buffer mixed with protease inhibitors and separated on SDS-PAGE gel, transferred to PVDF membrane treated with 5% skim milk to exclude non-specific background and incubated with a primary antibody over-night. The membrane was incubated for 1 h with a secondary antibody conjugated to Horseradish Peroxidase (HRP). The protein-antibody complex was visualized using the SuperSignal West Pico Chemiluminescent Substrate (Thermo scientific, USA).

[2] = test system: Hfb; assay: Mitochondrial membrane potential (TMRE) in normal human cells; assay type: cell-based
Protocol: (§2) For microscopic and ELISA based analyses of cells MMP, Tetra-Methyl-Rhodamine-Ethyl ester (TMRE) incorporation assay was carried out according to the manufacturer's instructions (Abcam, USA).

[3] = test system: CC cells; assay: Mitochondrial membrane potential (TMRE) in CC cells; assay type: cell-based, human; conditions: malignant cells
Protocol: as §2

[4] = test system: Hfb; assay: Cellular ATP level (HPLC) in Hfb; assay type: cell-based, human; conditions: 12 hours
Protocol: (§3) Quantification of intracellular ATP was carried out using HPLC as previously described.
(§4) Cells were suspended in 400 μl cold 0.4M perchloric acid solution, incubated on ice for 15 min, centrifuged at 12,000×g, neutralized with 4M K2CO3 to pH 7.5, incubated for 15 min on ice and concentrated (10,000×g). Chromatographic analyses were performed using Hitachi Elite LaChrom system at 30° C. applying supernatants to SUPELCOSIL™ LC-18-S HPLC Column (5 μm particle size, L×I.D. 25 cm×2.1 mm), flow rate 0.2 mL/min under isocratic elution conditions (50 mM potassium phosphate, 100 mM triethylamine, pH 6.5 (adjusted with phosphoric acid)):Acetonitrile (98.5:1.5)). Each analysis cycle was set to 30 min, chromatographic flow was monitored at 260 nm and integrated using EZChrom Elite Software.

[5] = test system: HKII; assay: Glycolysis enzyme levels in CC cells (WB, ICC); assay type: cell-based, human
Protocol: as §1
Cells were fixed with 4% paraformaldehyde (30 min) and incubated with Permeabilization Solution containing 0.1% Triton X-100 (Sigma-Aldrich, Israel) in PBS at room temperature for 1 h. Nonspecific binding was blocked with PBS containing 10% fetal bovine serum for 1 h at room temperature. Cells were incubated with specific antibodies diluted 1:100 overnight at 4° C. […] Bound primary antibodies were detected by Alexa Fluor® 488 goat anti-mouse IgG antibody or Alexa Fluor® 594 goat anti-rabbit IgG antibody (Molecular Probes, Invitrogen, U.K.). […] Nonspecific staining, as determined by binding to the secondary antibody only, was negligible. The immunostained slides were examined under the fluorescence microscope AxioimagerZ1 (Zeiss, Germany) or confocal fluorescence microscope (Olympus-FV1000).

[6] = test system: malignant cells (CC and MDA cells); assay: Cellular ATP level (HPLC) in malignant cells; assay type: cell-based, human; conditions: CC cells, high glucose
Protocol: as §3, §4

[7] = target: T1, Fer-PARP-1 complex (Homo sapiens, UniProt P16591); assay: Co-immunoprecipitation of Fer and PARP-1 from SW620 nuclear lysates; assay type: cell-based
T1 construct: endogenous in cells; host or cells: SW620 cells, nuclear lysates

[8] = test system: triple negative breast carcinoma MDA-MB-231 (MDA); assay: MultiTox-Fluor cytotoxicity assay in MDA-MB-231 cells; assay type: cell-based, human; conditions: 24-72 h
Protocol: Cell lines (HCT116, ht29, Rko, Hep3B, SW48, SW620, MDA-MB-231, PANC-1, su.86.86, Hfb) were obtained from the American Type Culture Collection (ATCC). Cell type authentication was carried out by microscope and DNA profiles using short tandem repeat analysis. Cells were grown in Minimum Essential Medium (MEM) containing 10% heat-inactivated Fetal Bovine Serum (FBS) or in Dulbecco's Modified Eagle's Medium (DMEM) containing 10% FBS, where specified, at 37° C. with 5% CO2. In general, the in-vitro experiments were carried out with 2. μM 0260 added into the growth medium. Dose response experiments included increasing 0260 concentrations. Cell death levels were determined using the MultiTox-Fluor Multiplex Cytotoxicity Assay (G9201, Promega, USA). In brief, 10,000 cells were seeded in black bottom 96 wells plate and were allowed to attach to the plate bottom for 16 h before the administration of various 0260 concentration in each well. Cell death levels were determined according to the manufacturer's protocol.
Cells death level was determined using the MultiTox-Fluor Multiplex Cytotoxicity Assay (G9201, Promega, USA) according to the manufacturer's protocol.

[9] = test system: AMPK-mTOR signaling pathway; assay: WB of AMPK-mTOR signaling pathway phosphorylation in CC cells; assay type: cell-based, human
Protocol: as §1

[10] = test system: Electron Transport Chain (ETC) complex I; assay: ETC Complex I activity assay in SW620 cells; assay type: cell-based, human
Protocol: SW620 cells were treated with 0260 for 4-22 h and the Complex I activity was determined for each period on incubation using the Complex I Enzyme Activity Microplate Assay Kit (Colorimetric) according to the manufacturer's instructions (ab109721).

T1 sequence (P16591 whole entry, one chain of several): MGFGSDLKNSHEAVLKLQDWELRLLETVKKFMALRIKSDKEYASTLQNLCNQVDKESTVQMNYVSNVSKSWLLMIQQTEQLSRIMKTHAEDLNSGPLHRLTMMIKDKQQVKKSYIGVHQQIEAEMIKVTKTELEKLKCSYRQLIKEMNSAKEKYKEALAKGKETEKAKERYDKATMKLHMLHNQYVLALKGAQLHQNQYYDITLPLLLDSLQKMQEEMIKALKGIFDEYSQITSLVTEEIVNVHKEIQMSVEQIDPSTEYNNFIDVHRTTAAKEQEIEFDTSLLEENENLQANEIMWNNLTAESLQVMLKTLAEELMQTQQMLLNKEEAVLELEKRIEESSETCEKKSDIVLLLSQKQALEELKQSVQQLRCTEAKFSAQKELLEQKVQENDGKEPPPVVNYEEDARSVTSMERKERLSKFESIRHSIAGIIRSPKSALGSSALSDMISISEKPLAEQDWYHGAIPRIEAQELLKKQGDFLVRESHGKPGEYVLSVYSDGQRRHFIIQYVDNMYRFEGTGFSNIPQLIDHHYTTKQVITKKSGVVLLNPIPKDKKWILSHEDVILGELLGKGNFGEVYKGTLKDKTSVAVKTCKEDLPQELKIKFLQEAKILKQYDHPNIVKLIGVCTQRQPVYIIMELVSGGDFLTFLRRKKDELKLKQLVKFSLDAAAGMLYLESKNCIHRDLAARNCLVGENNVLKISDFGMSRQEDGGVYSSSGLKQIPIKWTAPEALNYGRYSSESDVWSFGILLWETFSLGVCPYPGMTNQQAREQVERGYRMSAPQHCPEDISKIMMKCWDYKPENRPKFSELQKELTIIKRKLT

`CC(C)c1ccc(-c2cn3nc(N4CCC(CN5CCN(C)CC5)CC4)sc3n2)cc1` [compound 0260, tartarate salt of 6-(4-isopropyl-phenyl)-2-{4-[(4-methyl-piperazin-1-yl)methyl]piperidin-1-yl}-imidazo [2,1-b][1,3,4]thiadiazole] was tested, and the “poly-ADPr / PARP-1 poly-ADP-ribosylation activity” value [1] was “induction of poly-ADPr; also recorded: significant increase”, the “Mitochondrial Membrane Potential (MMP) depolarization” value [2] was “absent” and the “Mitochondrial Membrane Potential (MMP)” value [3] was “depolarization”. The “effect on cellular ATP level” value [4] was “not seen”, the HKII level [5] was “down-regulation of HKII” and the “effect on ATP levels under high glucose medium” value [6] was “reducing its effect on ATP levels”. For the same molecule, the “association of Fer with PARP-1” value [7] was “dissociated Fer from PARP-1”, the “concentration efficient in inducing cell death” value [8] was ≤ 1.5 µM and the AMPK phosphorylation [9] was “phosphorylated and activated”. The Akt phosphorylation [9] was “decrease in the activating phosphorylation”, the “Raptor phosphorylation on serines 792 and 722” value [9] was “inhibitory phosphorylation” and the mTOR phosphorylation state [9] was “not changed”. For the same molecule, the “Complex I activity” value ([10]; SW620, 4 h post treatment) was “inhibited”, the “Complex I activity (remaining)” value ([10]; SW620, 16 h) was “around 55%” and the “Complex I activity (remaining)” value ([10]; SW620, 22 hours) was ~35%.
